# Measurements from patent publication US5840684A, “Glycopeptide antibiotic derivatives” (Eli Lilly and Company, priority 1995, dated 1998).
# Experiments:
# Streptococcus pneumoniae = assay: mouse protection, experimentally-induced infection; format: in vivo; conditions: mice infected with Streptococcus pneumoniae, two doses
# [1] = tested on: Staphylococcus haemolyticus 105; assay: broth micro-dilution MIC; format: cell-based
# Experimental: (§1) The formula I compounds have in vitro and in vivo activity against Gram-positive pathogenic bacteria. The MIC's were determined using a standard broth micro-dilution assay.
# [2] = tested on: Enterococcus gallinarum 245; assay: broth micro-dilution MIC; format: cell-based; conditions: Enterococcus gallinarum 245
# Experimental: as §1
# Entercoccus faecium 2041 = assay: broth micro-dilution MIC; format: cell-based; conditions: Entercoccus faecium 2041
# Experimental: as §1
# [3] = tested on: Staphylococcus epidermidis 270; assay: broth micro-dilution MIC; format: cell-based
# Experimental: as §1
# Entercoccus faecium 180 = assay: broth micro-dilution MIC; format: cell-based; conditions: Entercoccus faecium 180
# Experimental: as §1
# [4] = tested on: Streptococcus pneumoniae P1; assay: broth micro-dilution MIC; format: cell-based
# Experimental: as §1
# [5] = tested on: Staphylococcus haemolyticus 415; assay: broth micro-dilution MIC; format: cell-based
# Experimental: as §1
# [6] = tested on: vancomycin-resistant enterococci; assay: broth micro-dilution, mean geometric MIC; format: cell-based, Enterococcus faecium and Enterococcus faecalis; conditions: enterococci, 24-hour incubation
# [7] = tested on: Staphylococcus aureus S13E; format: cell-based
# Experimental: (§2) The MIC's were determined using a standard broth micro-dilution assay.
# Streptococcus pyogenes = assay: mouse protection, experimentally-induced infection; format: in vivo; conditions: mice infected with Streptococcus pyogenes, two doses
# [8] = tested on: Staphylococcus aureus 491; assay: broth micro-dilution MIC; format: cell-based
# Experimental: as §2
# [9] = tested on: Streptococcus pyogenes C203; assay: broth micro-dilution MIC; format: cell-based
# Experimental: as §2
# [10] = tested on: Staphylococcus aureus SA1199; assay: broth micro-dilution MIC; format: cell-based
# Experimental: as §2
# [11] = tested on: Staphylococcus aureus X778; assay: broth micro-dilution MIC; format: cell-based
# Experimental: as §2
# [12] = tested on: Staphylococcus aureus X400; assay: broth micro-dilution MIC; format: cell-based
# Experimental: as §2
# [13] = tested on: Staphylococcus aureus SA1199A; assay: broth micro-dilution MIC; format: cell-based
# Experimental: as §2
# Entercoccus faecium 276 = assay: broth micro-dilution MIC; format: cell-based
# Experimental: as §2
# [14] = tested on: Staphylococcus aureus 446; assay: broth micro-dilution MIC; format: cell-based
# Experimental: as §2
# [15] = tested on: Staphylococcus aureus 447; assay: broth micro-dilution MIC; format: cell-based
# Experimental: as §2
# [16] = tested on: Entercoccus faecium 180-1; assay: broth micro-dilution MIC; format: cell-based
# Experimental: as §2
# [17] = tested on: vancomycin-susceptible enterococci; assay: broth micro-dilution, mean geometric MIC; format: cell-based, Enterococcus faecium and Enterococcus faecalis; conditions: enterococci, 24-hour incubation
# [18] = tested on: Staphylococcus aureus SA1199B; format: cell-based
# Experimental: as §2
# [19] = tested on: Staphylococcus aureus 489; assay: broth micro-dilution MIC; format: cell-based
# Experimental: as §2
smiles,measurement,setting,value
CCCCCCCCCOc1ccc(CNC2(C)CC(OC3C(Oc4c5cc6cc4Oc4ccc(cc4Cl)C(OC4CC(C)(N)C(O)C(C)O4)C4NC(=O)C(NC(=O)C6NC(=O)C(CC(N)=O)NC(=O)C(NC(=O)C(CC(C)C)NC)C(O)c6ccc(c(Cl)c6)O5)c5ccc(O)c(c5)-c5c(O)cc(O)cc5C(C(=O)O)NC4=O)OC(CO)C(O)C3O)OC(C)C2O)cc1 (centres unmarked) [Compound 8],ED50,Streptococcus pneumoniae,0.273 mg/kg/2
same,MIC,[1],8 µg/mL
same,MIC,[2],8 µg/mL
same,MIC,Entercoccus faecium 2041,4 µg/mL
same,MIC,[3],4 µg/mL
same,MIC,Entercoccus faecium 180,1 µg/mL
same,MIC,[4],≤ 0.06 µg/mL
same,MIC,[5],8 µg/mL
same,"mean geometric MIC, Vancomycin Resistant Strains",[6],1.0 µg/mL
same,MIC,[7],8 µg/mL
same,ED50,Streptococcus pyogenes,> 0.5 mg/kg/2
same,MIC,[8],4 µg/mL
same,MIC,[9],≤ 0.06 µg/mL
same,MIC,[10],2 µg/mL
same,MIC,[11],8 µg/mL
same,MIC,[12],8 µg/mL
same,MIC,[13],2 µg/mL
same,MIC,Entercoccus faecium 276,4 µg/mL
same,MIC,[14],2 µg/mL
same,MIC,[15],8 µg/mL
same,MIC,[16],0.5 µg/mL
CNC(CC(C)C)C(=O)NC1C(=O)NC(CC(N)=O)C(=O)NC2C(=O)NC3C(=O)NC(C(=O)NC(C(=O)O)c4cc(O)cc(O)c4-c4cc3ccc4O)C(OC3CC(C)(N)C(O)C(C)O3)c3ccc(c(Cl)c3)Oc3cc2cc(c3OC2OC(CO)C(O)C(O)C2OC2CC(C)(NCc3ccc(Oc4cccc(Cl)c4)c([N+](=O)[O-])c3)C(O)C(C)O2)Oc2ccc(cc2Cl)C1O (centres unmarked) [Compound 87],ED50,Streptococcus pneumoniae,0.027 mg/kg/2
same,MIC,[1],1 µg/mL
same,MIC,[2],2 µg/mL
same,MIC,Entercoccus faecium 2041,≤ 0.06 µg/mL
same,MIC,[3],1 µg/mL
same,MIC,Entercoccus faecium 180,≤ 0.06 µg/mL
same,MIC,[4],≤ 0.06 µg/mL
same,MIC,[5],2 µg/mL
same,"mean geometric MIC, Vancomycin Sensitive Strains",[17],0.047 µg/mL
same,"mean geometric MIC, Vancomycin Resistant Strains",[6],0.71 µg/mL
same,MIC,[7],0.5 µg/mL
same,MIC,[18],0.5 µg/mL
same,ED50,Streptococcus pyogenes,0.054 mg/kg/2
same,MIC,[8],2 µg/mL
same,MIC,[9],≤ 0.06 µg/mL
same,MIC,[19],0.5 µg/mL
same,MIC,[10],2 µg/mL
same,MIC,[11],2 µg/mL
same,MIC,[12],1 µg/mL
same,MIC,[13],≤ 0.06 µg/mL
same,MIC,Entercoccus faecium 276,≤ 0.06 µg/mL
same,MIC,[14],1 µg/mL
same,MIC,[15],0.5 µg/mL
same,MIC,[16],≤ 0.06 µg/mL
CCc1ccc(-c2ccc(CNC3(C)CC(OC4C(Oc5c6cc7cc5Oc5ccc(cc5Cl)C(OC5CC(C)(N)C(O)C(C)O5)C5NC(=O)C(NC(=O)C7NC(=O)C(CC(N)=O)NC(=O)C(NC(=O)C(CC(C)C)NC)C(O)c7ccc(c(Cl)c7)O6)c6ccc(O)c(c6)-c6c(O)cc(O)cc6C(C(=O)O)NC5=O)OC(CO)C(O)C4O)OC(C)C3O)cc2)cc1 (centres unmarked) [Compound 90],ED50,Streptococcus pneumoniae,0.049 mg/kg/2
same,MIC,[1],2 µg/mL
same,MIC,[2],2 µg/mL
same,MIC,Entercoccus faecium 2041,0.125 µg/mL
same,MIC,[3],1 µg/mL
same,MIC,Entercoccus faecium 180,0.25 µg/mL
same,MIC,[4],≤ 0.06 µg/mL
same,MIC,[5],2 µg/mL
same,"mean geometric MIC, Vancomycin Sensitive Strains",[17],0.041 µg/mL
same,"mean geometric MIC, Vancomycin Resistant Strains",[6],0.71 µg/mL
same,MIC,[7],1 µg/mL
same,MIC,[18],1 µg/mL
same,ED50,Streptococcus pyogenes,0.058 mg/kg/2
same,MIC,[8],2 µg/mL
same,MIC,[9],≤ 0.06 µg/mL
same,MIC,[19],2 µg/mL
same,MIC,[10],2 µg/mL
same,MIC,[11],1 µg/mL
same,MIC,[12],1 µg/mL
same,MIC,[13],0.5 µg/mL
same,MIC,Entercoccus faecium 276,2 µg/mL
same,MIC,[14],2 µg/mL
same,MIC,[15],1 µg/mL
same,MIC,[16],≤ 0.06 µg/mL
CN[C@H](CC(C)C)C(=O)N[C@H]1C(=O)N[C@@H](CC(N)=O)C(=O)N[C@H]2C(=O)N[C@H]3C(=O)N[C@H](C(=O)N[C@H](C(=O)O)c4cc(O)cc(O)c4-c4cc3ccc4O)[C@H](O[C@H]3C[C@](C)(N)[C@@H](O)[C@H](C)O3)c3ccc(c(Cl)c3)Oc3cc2cc(c3O[C@@H]2O[C@H](CO)[C@@H](O)[C@H](O)[C@H]2O[C@H]2C[C@](C)(NCc3ccc(Oc4ccc(Cl)cc4)c([N+](=O)[O-])c3)[C@@H](O)[C@H](C)O2)Oc2ccc(cc2Cl)[C@H]1O [Compound 94],ED50,Streptococcus pneumoniae,0.049 mg/kg/2
same,MIC,[1],2 µg/mL
same,MIC,[2],2 µg/mL
same,MIC,Entercoccus faecium 2041,≤ 0.06 µg/mL
same,MIC,[3],1 µg/mL
same,MIC,[4],≤ 0.06 µg/mL
same,MIC,[5],2 µg/mL
same,"mean geometric MIC, Vancomycin Sensitive Strains",[17],0.041 µg/mL
same,"mean geometric MIC, Vancomycin Resistant Strains",[6],0.50 µg/mL
same,MIC,[7],2 µg/mL
same,MIC,[18],2 µg/mL
same,ED50,Streptococcus pyogenes,0.16 mg/kg/2
same,MIC,[8],0.5 µg/mL
same,MIC,[9],≤ 0.06 µg/mL
same,MIC,[19],2 µg/mL
same,MIC,[10],0.5 µg/mL
same,MIC,[11],0.5 µg/mL
same,MIC,[12],1 µg/mL
same,MIC,[13],≤ 0.06 µg/mL
same,MIC,Entercoccus faecium 276,0.125 µg/mL
same,MIC,[14],1 µg/mL
same,MIC,[15],0.5 µg/mL
same,MIC,[16],≤ 0.06 µg/mL
CCCc1ccc(-c2ccc(CNC3(C)CC(OC4C(Oc5c6cc7cc5Oc5ccc(cc5Cl)C(OC5CC(C)(N)C(O)C(C)O5)C5NC(=O)C(NC(=O)C7NC(=O)C(CC(N)=O)NC(=O)C(NC(=O)C(CC(C)C)NC)C(O)c7ccc(c(Cl)c7)O6)c6ccc(O)c(c6)-c6c(O)cc(O)cc6C(C(=O)O)NC5=O)OC(CO)C(O)C4O)OC(C)C3O)cc2)cc1 (centres unmarked) [Compound 107],ED50,Streptococcus pneumoniae,0.092 mg/kg/2
same,MIC,[1],2 µg/mL
same,MIC,[2],2 µg/mL
same,MIC,Entercoccus faecium 2041,0.5 µg/mL
same,MIC,[3],0.5 µg/mL
same,MIC,Entercoccus faecium 180,0.125 µg/mL
same,MIC,[4],≤ 0.06 µg/mL
same,MIC,[5],2 µg/mL
same,"mean geometric MIC, Vancomycin Sensitive Strains",[17],0.082 µg/mL
same,"mean geometric MIC, Vancomycin Resistant Strains",[6],0.59 µg/mL
same,MIC,[7],2 µg/mL
same,MIC,[18],2 µg/mL
same,ED50,Streptococcus pyogenes,0.27 mg/kg/2
same,MIC,[8],1 µg/mL
same,MIC,[9],≤ 0.06 µg/mL
same,MIC,[19],1 µg/mL
same,MIC,[10],1 µg/mL
same,MIC,[11],0.5 µg/mL
same,MIC,[12],1 µg/mL
same,MIC,[13],≤ 0.06 µg/mL
same,MIC,Entercoccus faecium 276,1 µg/mL
same,MIC,[14],2 µg/mL
same,MIC,[15],1 µg/mL
same,MIC,[16],≤ 0.06 µg/mL
CNC(CC(C)C)C(=O)NC1C(=O)NC(CC(N)=O)C(=O)NC2C(=O)NC3C(=O)NC(C(=O)NC(C(=O)O)c4cc(O)cc(O)c4-c4cc3ccc4O)C(OC3CC(C)(N)C(O)C(C)O3)c3ccc(c(Cl)c3)Oc3cc2cc(c3OC2OC(CO)C(O)C(O)C2OC2CC(C)(NCc3cccc(Oc4cccc(C(F)(F)F)c4)c3)C(O)C(C)O2)Oc2ccc(cc2Cl)C1O (centres unmarked) [Compound 111],ED50,Streptococcus pneumoniae,0.084 mg/kg/2
same,MIC,[1],1 µg/mL
same,MIC,[2],4 µg/mL
same,MIC,Entercoccus faecium 2041,≤ 0.06 µg/mL
same,MIC,[3],1 µg/mL
same,MIC,Entercoccus faecium 180,≤ 0.06 µg/mL
same,MIC,[4],≤ 0.06 µg/mL
same,MIC,[5],4 µg/mL
same,"mean geometric MIC, Vancomycin Sensitive Strains",[17],0.031 µg/mL
same,"mean geometric MIC, Vancomycin Resistant Strains",[6],0.71 µg/mL
same,MIC,[7],1 µg/mL
same,MIC,[18],1 µg/mL
same,ED50,Streptococcus pyogenes,0.099 mg/kg/2
same,MIC,[8],2 µg/mL
same,MIC,[9],≤ 0.06 µg/mL
same,MIC,[19],1 µg/mL
same,MIC,[10],2 µg/mL
same,MIC,[11],2 µg/mL
same,MIC,[12],1 µg/mL
same,MIC,[13],0.5 µg/mL
same,MIC,Entercoccus faecium 276,0.5 µg/mL
same,MIC,[14],2 µg/mL
same,MIC,[15],1 µg/mL
same,MIC,[16],≤ 0.06 µg/mL
